Data from ChEMBL document CHEMBL5303766, “Data for DCP probe FHT-2344” (2022).

What was measured:
[1] = target: Mitogen-activated protein kinase 9 (Homo sapiens) (UniProt P45984); assay: MAPK9 SGC Tm panel (DSF); conditions: for ΔTm: Compound concentration 10.0 uM
[2] = target: Sodium-dependent dopamine transporter (Homo sapiens, UniProt Q01959); assay: GPCRScan assay: inhibition of DAT; set-up: radioligand conc. used [nm] 3.6 – 16.0, parental cells stable HEK
[3] = target: STE20/SPS1-related proline-alanine-rich protein kinase (Homo sapiens) (UniProt Q9UEW8); assay: STK39 SGC Tm panel (DSF); conditions: for ΔTm: Compound concentration 10.0 uM
[4] = target: T1, Transcription intermediary factor 1-alpha (Homo sapiens) (UniProt O15164); assay: TIF1 SGC Tm panel (DSF); conditions: for ΔTm: Compound concentration 10.0 uM
T1 sequence (whole entry): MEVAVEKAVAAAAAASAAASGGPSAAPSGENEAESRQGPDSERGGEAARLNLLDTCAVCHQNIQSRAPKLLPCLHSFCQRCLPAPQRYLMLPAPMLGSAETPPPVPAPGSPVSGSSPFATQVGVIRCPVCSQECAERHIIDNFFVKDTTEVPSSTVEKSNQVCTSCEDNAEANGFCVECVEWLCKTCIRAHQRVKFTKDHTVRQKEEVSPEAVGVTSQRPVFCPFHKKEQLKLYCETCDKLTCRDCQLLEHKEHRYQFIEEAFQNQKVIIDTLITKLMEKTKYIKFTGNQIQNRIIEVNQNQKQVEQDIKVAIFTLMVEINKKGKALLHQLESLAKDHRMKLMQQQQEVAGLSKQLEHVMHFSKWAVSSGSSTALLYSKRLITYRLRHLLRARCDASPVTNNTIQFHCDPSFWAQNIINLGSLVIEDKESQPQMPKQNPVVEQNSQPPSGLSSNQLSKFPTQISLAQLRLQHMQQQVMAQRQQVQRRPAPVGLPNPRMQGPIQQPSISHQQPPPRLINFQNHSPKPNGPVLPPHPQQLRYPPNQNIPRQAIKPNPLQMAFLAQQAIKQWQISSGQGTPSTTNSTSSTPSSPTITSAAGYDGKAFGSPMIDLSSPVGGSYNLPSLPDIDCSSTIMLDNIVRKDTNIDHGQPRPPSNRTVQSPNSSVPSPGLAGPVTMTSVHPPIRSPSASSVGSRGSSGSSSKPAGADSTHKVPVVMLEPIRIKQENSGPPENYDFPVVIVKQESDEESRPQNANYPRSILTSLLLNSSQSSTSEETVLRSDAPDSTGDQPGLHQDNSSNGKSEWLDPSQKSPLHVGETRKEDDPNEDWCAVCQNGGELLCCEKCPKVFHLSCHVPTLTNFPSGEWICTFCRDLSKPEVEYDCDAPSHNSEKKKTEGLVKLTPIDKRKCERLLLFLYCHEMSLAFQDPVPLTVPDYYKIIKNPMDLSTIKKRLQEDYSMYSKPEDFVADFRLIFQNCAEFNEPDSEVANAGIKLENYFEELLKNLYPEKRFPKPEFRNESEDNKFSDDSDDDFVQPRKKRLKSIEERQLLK

[5] = target: T2, Myotonin-protein kinase (Homo sapiens) (UniProt Q09013); assay: DMPK SGC Tm panel (DSF); conditions: for ΔTm: Compound concentration 10.0 uM
T2 sequence (whole entry): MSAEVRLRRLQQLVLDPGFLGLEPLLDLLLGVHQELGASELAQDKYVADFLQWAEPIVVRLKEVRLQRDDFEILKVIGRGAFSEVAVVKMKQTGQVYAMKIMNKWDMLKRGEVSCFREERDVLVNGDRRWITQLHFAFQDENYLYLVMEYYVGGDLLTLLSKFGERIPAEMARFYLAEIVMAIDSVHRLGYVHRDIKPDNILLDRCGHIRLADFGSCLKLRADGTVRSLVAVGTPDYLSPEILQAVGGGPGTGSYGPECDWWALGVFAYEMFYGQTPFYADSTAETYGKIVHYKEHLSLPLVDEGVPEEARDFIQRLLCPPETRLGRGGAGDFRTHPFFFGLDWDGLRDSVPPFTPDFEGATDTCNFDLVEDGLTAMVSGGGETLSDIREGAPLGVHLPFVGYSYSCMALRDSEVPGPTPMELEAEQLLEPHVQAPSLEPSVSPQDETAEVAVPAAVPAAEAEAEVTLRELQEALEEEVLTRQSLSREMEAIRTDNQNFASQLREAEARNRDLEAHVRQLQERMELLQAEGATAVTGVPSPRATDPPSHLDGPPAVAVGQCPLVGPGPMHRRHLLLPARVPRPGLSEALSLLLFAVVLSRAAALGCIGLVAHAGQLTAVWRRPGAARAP

Sodium-dependent dopamine transporter, sequence (Q01959 whole entry): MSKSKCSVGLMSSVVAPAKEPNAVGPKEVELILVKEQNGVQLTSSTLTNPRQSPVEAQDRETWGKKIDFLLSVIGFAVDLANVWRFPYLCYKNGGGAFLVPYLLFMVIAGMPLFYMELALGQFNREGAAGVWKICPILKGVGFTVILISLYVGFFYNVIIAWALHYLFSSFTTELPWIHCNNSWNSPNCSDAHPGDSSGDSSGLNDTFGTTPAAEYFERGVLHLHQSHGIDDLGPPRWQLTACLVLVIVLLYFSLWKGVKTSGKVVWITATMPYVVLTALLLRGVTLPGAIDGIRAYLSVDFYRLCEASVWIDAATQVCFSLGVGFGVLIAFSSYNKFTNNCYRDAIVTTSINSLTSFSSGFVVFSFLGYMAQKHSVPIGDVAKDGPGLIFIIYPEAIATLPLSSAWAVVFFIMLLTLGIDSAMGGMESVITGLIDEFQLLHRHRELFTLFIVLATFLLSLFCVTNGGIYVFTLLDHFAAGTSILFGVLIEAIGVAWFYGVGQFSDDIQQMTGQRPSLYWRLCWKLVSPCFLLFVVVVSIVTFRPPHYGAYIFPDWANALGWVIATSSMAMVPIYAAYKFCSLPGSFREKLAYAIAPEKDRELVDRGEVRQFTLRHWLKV
Mitogen-activated protein kinase 9 (Homo sapiens), sequence (P45984 whole entry, looked up): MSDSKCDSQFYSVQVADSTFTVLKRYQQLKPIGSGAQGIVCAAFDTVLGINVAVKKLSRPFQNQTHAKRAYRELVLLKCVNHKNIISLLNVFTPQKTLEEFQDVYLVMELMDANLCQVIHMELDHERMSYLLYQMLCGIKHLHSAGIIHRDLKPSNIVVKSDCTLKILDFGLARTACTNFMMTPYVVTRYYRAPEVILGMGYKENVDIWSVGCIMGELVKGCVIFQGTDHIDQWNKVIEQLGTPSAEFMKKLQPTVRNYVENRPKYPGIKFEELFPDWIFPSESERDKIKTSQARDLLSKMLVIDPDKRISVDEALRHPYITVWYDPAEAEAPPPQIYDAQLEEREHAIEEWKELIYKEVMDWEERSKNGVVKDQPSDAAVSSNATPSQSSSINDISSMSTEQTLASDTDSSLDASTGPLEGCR

delta Tm Staurosporine positive control [1]	ΔTm [1]	Ki [2]	pKi [2]	delta Tm Staurosporine positive control [3]	ΔTm [3]	delta Tm Staurosporine positive control [4]	ΔTm [4]	delta Tm Staurosporine positive control [5]	ΔTm [5]	Structure (SMILES)
3.96	0.244	> 10 µM	< 5	8.57	0.181	2.51	1.43	9.28	0.564	COC[C@H](NC(=O)c1ccn(S(C)(=O)=O)c1)C(=O)Nc1nc(-c2cccc(-c3ccn(C)n3)c2)cs1
3.96	0.39	> 10 µM	< 5	8.57	0.258	2.51	1.18	9.28	-0.281	C[C@H](NC(=O)c1cn(C2(C#N)CC2)cn1)C(=O)Nc1nc(-c2cccc(-c3ccn(C)n3)c2)cs1
